From patent publication US5093359A, “Primycin components and process for the separation of the antibiotic complex” (priority 1984, dated 1992)
Converted amounts (≈) assume the structure as drawn. Read-outs that look alike come from different tables or passages of the source.

How the values were obtained:
[1] = tested on: Staphylococcus epidermidis CCM.2271; assay: MIC, strain 7; assay type: cell-based; conditions: read-out: MIC
[2] = tested on: Streptococcus faecalis CCM.1875.; assay: MIC, strain 9; assay type: cell-based; conditions: Enterococcus faecalis, read-out: MIC
[3] = tested on: Streptococcus agalactiae CCM.5534.; assay: MIC, strain 11; assay type: cell-based
[4] = tested on: Proteus vulgaris CCM.1799.; assay: MIC, strain 25; conditions: 24 h
Description: (§1) The antimicrobial activity of the primycin complex and the components thereof is tested on different microorganism strains.
(§2) (Inoculation: 5 × 10^5 /ml, incubation at 37 C.° for

[5] = tested on: Pseudomonas acidoverans CCM.283; assay: MIC, strain 24; conditions: CCM.283, 24 h
Description: as §1, §2

[6] = tested on: Micrococcus luteus DSM.20030.; assay: MIC, strain 20; assay type: cell-based; conditions: read-out: MIC
[7] = tested on: Pseudomonas fluorescens CCM.2115.; assay: MIC, strain 23; conditions: 24 h
Description: as §1, §2

[8] = tested on: Pseudomonas aeruginosa CCM.1960.; assay: MIC, strain 22; conditions: 24 h
Description: as §1, §2

[9] = tested on: Staphylococcus aureus DSM.20231; assay: MIC, strain 2; assay type: cell-based
[10] = tested on: Bacillus cereus CCM.2010.; assay: MIC, strain 14; assay type: cell-based; conditions: read-out: MIC
[11] = tested on: Shigella sonnei CCM.1373.; assay: MIC, strain 26; conditions: 24 h
Description: (§3) The table contains the MIC values (/μg/ml) measured on human pathogenic polyresistant strains.
as §1, §2

[12] = tested on: Bacillus licheniformis CCM.2182.; assay: MIC, strain 15; assay type: cell-based; conditions: read-out: MIC
[13] = tested on: Staphylococcus aureus CCM.2514; assay: MIC, strain 5; assay type: cell-based; conditions: read-out: MIC
[14] = tested on: Staphylococcus aureus CCM.885.; assay: MIC, strain 1; assay type: cell-based; conditions: read-out: MIC
[15] = tested on: Bacillus licheniformis CCM.2205.; assay: MIC, strain 16; assay type: cell-based; conditions: read-out: MIC
[16] = tested on: Escherichia coli DSM.30038.; assay: MIC, strain 28; conditions: 24 h
Description: as §3, §1, §2

[17] = tested on: Salmonella typhimurium CCM.5445.; assay: MIC, strain 27; conditions: Salmonella enterica, 24 h
Description: as §3, §1, §2

[18] = tested on: Sporosarcina ureae DSM.317; assay: MIC, strain 21; conditions: DSM.317, 24 h
Description: as §1, §2

[19] = tested on: Staphylococcus aureus CCM.2515.; assay: MIC, strain 6; assay type: cell-based; conditions: read-out: MIC
[20] = tested on: Staphylococcus aureus CCM.2317.; assay: MIC, strain 3; assay type: cell-based; conditions: read-out: MIC
[21] = tested on: Streptococcus agalactiae CCM.5153.; assay: MIC, strain 10; assay type: cell-based; conditions: read-out: MIC
[22] = tested on: Staphylococcus aureus Smith; assay: MIC, strain 8; assay type: cell-based; conditions: read-out: MIC
[23] = tested on: Bacillus subtilis CCM.1718.; assay: MIC, strain 17; assay type: cell-based; conditions: read-out: MIC
[24] = tested on: Micrococcus flavus ATCC.10240.; assay: MIC, strain 19; assay type: cell-based; conditions: read-out: MIC
[25] = tested on: Listeria monocytogenes CCM.5576.; assay: MIC, strain 18; assay type: cell-based; conditions: read-out: MIC
[26] = tested on: Bacillus subtilis ATTC.6633.; assay: MIC, strain 13; assay type: cell-based; conditions: read-out: MIC
[27] = tested on: Staphylococcus aureus CCM.2326.; assay: MIC, strain 4; assay type: cell-based; conditions: read-out: MIC
[28] = tested on: Streptococcus disgalactiae ATTC.9926; assay: MIC, strain 12; assay type: cell-based
[29] = CCM.2271, strain 7, Table O, 24 hours
[30] = CCM.2271, strain 7, Tables I-XIII, 25 hours
[31] = strain 9, Tables I-XIII, 25 hours
[32] = Streptococcus agalactiae, CCM.5534., 24 h, strain 11, Table O, 24 hours, read-out: MIC
[33] = Streptococcus agalactiae, CCM.5534., 25 h, strain 11, Tables I-XIII, 25 hours, read-out: MIC
[34] = strain 20, Tables I-XIII, 25 hours
[35] = Staphylococcus aureus, DSM.20231, 24 h, strain 2, Table O, 24 hours, read-out: MIC
[36] = 24 h, strain 14, Table O, 24 hours
[37] = strain 15, Tables I-XIII, 25 hours
[38] = CCM.2514, strain 5, Table O, 24 hours
[39] = CCM.2514, strain 5, Tables I-XIII, 25 hours
[40] = strain 1, Tables I-XIII, 25 hours
[41] = strain 16, Tables I-XIII, 25 hours
[42] = strain 6, Tables I-XIII, 25 hours
[43] = strain 3, Tables I-XIII, 25 hours
[44] = strain 10, Tables I-XIII, 25 hours
[45] = strain 8, Tables I-XIII, 25 hours
[46] = 24 h, strain 17, Table O, 24 hours
[47] = strain 19, Tables I-XIII, 25 hours
[48] = strain 18, Tables I-XIII, 25 hours
[49] = 24 h, strain 13, Table O, 24 hours
[50] = strain 4, Tables I-XIII, 25 hours
[51] = ATTC.9926, 24 h, strain 12, Table O, 24 hours

SMILES: CCCCC1C(=O)OC(C(C)C(O)CCCNC(=N)N)C(C)C=C(C)CCCCC(O)CC(O)CC(O)CC(O)CC(O)CC=C(C)C(O)CCCC(O)CCCC(O)CCC(C)C1O (stereo not drawn) [B1, hydropricin]
- MIC [1, 29]: 0.25 µg/mL (≈ 0.269 µM)
- MIC [1, 30]: 0.25 µg/mL (≈ 0.269 µM)
- MIC ([2]; strain 9, Table O, 24 hours): 2.5 µg/mL (≈ 2.69 µM)
- MIC [2, 31]: 2.5 µg/mL (≈ 2.69 µM)
- MIC [3, 32]: 1 µg/mL (≈ 1.07 µM)
- MIC [3, 33]: 1 µg/mL (≈ 1.07 µM)
- MIC [4]: 50 µg/mL (≈ 53.7 µM)
- MIC [5]: 25 µg/mL (≈ 26.9 µM)
- MIC ([6]; strain 20, Table O, 24 hours): 0.075 µg/mL (≈ 0.0806 µM)
- MIC [6, 34]: 0.075 µg/mL (≈ 0.0806 µM)
- MIC [7]: 25 µg/mL (≈ 26.9 µM)
- MIC [8]: 25 µg/mL (≈ 26.9 µM)
- MIC [9, 35]: 0.1 µg/mL (≈ 0.107 µM)
- MIC [10, 36]: 0.25 µg/mL (≈ 0.269 µM)
- MIC [11]: 50 µg/mL (≈ 53.7 µM)
- MIC ([12]; strain 15, Table O, 24 hours): 0.25 µg/mL (≈ 0.269 µM)
- MIC [12, 37]: 0.25 µg/mL (≈ 0.269 µM)
- MIC [13, 38]: 0.1 µg/mL (≈ 0.107 µM)
- MIC [13, 39]: 0.1 µg/mL (≈ 0.107 µM)
- MIC ([14]; strain 1, Table O, 24 hours): 0.5 µg/mL (≈ 0.537 µM)
- MIC [14, 40]: 0.5 µg/mL (≈ 0.537 µM)
- MIC ([15]; strain 16, Table O, 24 hours): 0.25 µg/mL (≈ 0.269 µM)
- MIC [15, 41]: 0.25 µg/mL (≈ 0.269 µM)
- MIC [16]: 50 µg/mL (≈ 53.7 µM)
- MIC [17]: 50 µg/mL (≈ 53.7 µM)
- MIC [18]: 0.025 µg/mL (≈ 0.0269 µM)
- MIC ([19]; strain 6, Table O, 24 hours): 0.1 µg/mL (≈ 0.107 µM)
- MIC [19, 42]: 0.1 µg/mL (≈ 0.107 µM)
- MIC ([20]; strain 3, Table O, 24 hours): 0.1 µg/mL (≈ 0.107 µM)
- MIC [20, 43]: 0.1 µg/mL (≈ 0.107 µM)
- MIC ([21]; strain 10, Table O, 24 hours): 0.5 µg/mL (≈ 0.537 µM)
- MIC [21, 44]: 0.5 µg/mL (≈ 0.537 µM)
- MIC ([22]; strain 8, Table O, 24 hours): 0.5 µg/mL (≈ 0.537 µM)
- MIC [22, 45]: 0.5 µg/mL (≈ 0.537 µM)
- MIC [23, 46]: 0.25 µg/mL (≈ 0.269 µM)
- MIC ([23]; 25 h, strain 17, Tables I-XIII, 25 hours): 0.25 µg/mL (≈ 0.269 µM)
- MIC ([24]; strain 19, Table O, 24 hours): 0.05 µg/mL (≈ 0.0537 µM)
- MIC [24, 47]: 0.05 µg/mL (≈ 0.0537 µM)
- MIC ([25]; strain 18, Table O, 24 hours): 0.25 µg/mL (≈ 0.269 µM)
- MIC [25, 48]: 0.25 µg/mL (≈ 0.269 µM)
- MIC [26, 49]: 0.1 µg/mL (≈ 0.107 µM)
- MIC ([27]; strain 4, Table O, 24 hours): 0.25 µg/mL (≈ 0.269 µM)
- MIC [27, 50]: 0.25 µg/mL (≈ 0.269 µM)
- MIC [28, 51]: 2.5 µg/mL (≈ 2.69 µM)

SMILES: CCCCC1C(=O)OC(C(C)C(O)CCCNC(=N)N)C(C)C=C(C)CCCCC(O)CC(O)CC(O)CC(O)CC(O)C(O)C=C(C)C(O)CCCC(O)CCCC(O)CCC(C)C1O (stereo not drawn) [C1, oxypricin]
- MIC [1, 29]: 0.025 µg/mL (≈ 0.0264 µM)
- MIC [1, 30]: 0.025 µg/mL (≈ 0.0264 µM)
- MIC ([2]; strain 9, Table O, 24 hours): 0.75 µg/mL (≈ 0.793 µM)
- MIC [2, 31]: 0.75 µg/mL (≈ 0.793 µM)
- MIC [3, 32]: 0.25 µg/mL (≈ 0.264 µM)
- MIC [3, 33]: 0.25 µg/mL (≈ 0.264 µM)
- MIC ([3]; strain 11, Tables I-XIII, 25 hours): 0.2 µg/mL (≈ 0.211 µM)
- MIC [4]: 50 µg/mL (≈ 52.8 µM)
- MIC [5]: 25 µg/mL (≈ 26.4 µM)
- MIC ([6]; strain 20, Table O, 24 hours): 0.01 µg/mL (≈ 0.0106 µM)
- MIC [6, 34]: 0.01 µg/mL (≈ 0.0106 µM)
- MIC [7]: 25 µg/mL (≈ 26.4 µM)
- MIC [8]: 25 µg/mL (≈ 26.4 µM)
- MIC [9, 35]: 0.05 µg/mL (≈ 0.0528 µM)
- MIC ([9]; Staphylococcus aureus, DSM.20231, 25 h, strain 2, Tables I-XIII, 25 hours, read-out: MIC): 0.05 µg/mL (≈ 0.0528 µM)
- MIC ([9]; strain 2, Tables I-XIII, 25 hours): 0.1 µg/mL (≈ 0.106 µM)
- MIC [10, 36]: 0.025 µg/mL (≈ 0.0264 µM)
- MIC ([10]; 25 h, strain 14, Tables I-XIII, 25 hours): 0.025 µg/mL (≈ 0.0264 µM)
- MIC [11]: 50 µg/mL (≈ 52.8 µM)
- MIC ([12]; strain 15, Table O, 24 hours): 0.025 µg/mL (≈ 0.0264 µM)
- MIC [12, 37]: 0.025 µg/mL (≈ 0.0264 µM)
- MIC [13, 38]: 0.05 µg/mL (≈ 0.0528 µM)
- MIC [13, 39]: 0.05 µg/mL (≈ 0.0528 µM)
- MIC ([14]; strain 1, Table O, 24 hours): 0.075 µg/mL (≈ 0.0793 µM)
- MIC [14, 40]: 0.075 µg/mL (≈ 0.0793 µM)
- MIC ([15]; strain 16, Table O, 24 hours): 0.025 µg/mL (≈ 0.0264 µM)
- MIC [15, 41]: 0.025 µg/mL (≈ 0.0264 µM)
- MIC [16]: 50 µg/mL (≈ 52.8 µM)
- MIC [17]: 50 µg/mL (≈ 52.8 µM)
- MIC [18]: 0.01 µg/mL (≈ 0.0106 µM)
- MIC ([19]; strain 6, Table O, 24 hours): 0.025 µg/mL (≈ 0.0264 µM)
- MIC [19, 42]: 0.025 µg/mL (≈ 0.0264 µM)
- MIC ([20]; strain 3, Table O, 24 hours): 0.05 µg/mL (≈ 0.0528 µM)
- MIC [20, 43]: 0.05 µg/mL (≈ 0.0528 µM)
- MIC ([21]; strain 10, Table O, 24 hours): 0.075 µg/mL (≈ 0.0793 µM)
- MIC [21, 44]: 0.075 µg/mL (≈ 0.0793 µM)
- MIC ([22]; strain 8, Table O, 24 hours): 0.05 µg/mL (≈ 0.0528 µM)
- MIC [22, 45]: 0.05 µg/mL (≈ 0.0528 µM)
- MIC [23, 46]: 0.05 µg/mL (≈ 0.0528 µM)
- MIC ([24]; strain 19, Table O, 24 hours): 0.01 µg/mL (≈ 0.0106 µM)
- MIC [24, 47]: 0.01 µg/mL (≈ 0.0106 µM)
- MIC ([25]; strain 18, Table O, 24 hours): 0.075 µg/mL (≈ 0.0793 µM)
- MIC [25, 48]: 0.075 µg/mL (≈ 0.0793 µM)
- MIC [26, 49]: 0.025 µg/mL (≈ 0.0264 µM)
- MIC ([26]; 25 h, strain 13, Tables I-XIII, 25 hours): 0.025 µg/mL (≈ 0.0264 µM)
- MIC ([27]; strain 4, Table O, 24 hours): 0.05 µg/mL (≈ 0.0528 µM)
- MIC [27, 50]: 0.05 µg/mL (≈ 0.0528 µM)
- MIC [28, 51]: 0.5 µg/mL (≈ 0.528 µM)
- MIC ([28]; ATTC.9926, 25 h, strain 12, Tables I-XIII, 25 hours): 0.5 µg/mL (≈ 0.528 µM)
